Earlier results as cited in patent publication US12201674B2 (EDIX SA, priority 2018, dated 2025).

Experiments:
SSTR 3 = SSTR 3 (Homo sapiens, UniProt P32745)
SSTR 1 = SSTR 1 (Homo sapiens, UniProt P30872)
SSTR 4 = SSTR 4 (Homo sapiens, UniProt P31391)
[1] = target: human somatostatin receptors (SSTR) 2 (Homo sapiens, UniProt P30874)
Sequence of human somatostatin receptors (SSTR) 2 (P30874 whole entry): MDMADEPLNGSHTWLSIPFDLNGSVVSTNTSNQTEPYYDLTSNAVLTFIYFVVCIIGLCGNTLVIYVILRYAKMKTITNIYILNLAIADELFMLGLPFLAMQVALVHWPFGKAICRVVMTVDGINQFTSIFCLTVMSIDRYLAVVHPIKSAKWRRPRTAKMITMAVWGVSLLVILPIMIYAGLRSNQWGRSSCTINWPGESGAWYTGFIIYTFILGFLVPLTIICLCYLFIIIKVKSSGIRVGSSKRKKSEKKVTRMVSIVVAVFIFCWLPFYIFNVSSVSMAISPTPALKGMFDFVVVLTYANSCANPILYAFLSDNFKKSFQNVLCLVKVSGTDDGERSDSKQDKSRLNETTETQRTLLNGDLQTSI

Sequence of SSTR 3 (P32745 whole entry): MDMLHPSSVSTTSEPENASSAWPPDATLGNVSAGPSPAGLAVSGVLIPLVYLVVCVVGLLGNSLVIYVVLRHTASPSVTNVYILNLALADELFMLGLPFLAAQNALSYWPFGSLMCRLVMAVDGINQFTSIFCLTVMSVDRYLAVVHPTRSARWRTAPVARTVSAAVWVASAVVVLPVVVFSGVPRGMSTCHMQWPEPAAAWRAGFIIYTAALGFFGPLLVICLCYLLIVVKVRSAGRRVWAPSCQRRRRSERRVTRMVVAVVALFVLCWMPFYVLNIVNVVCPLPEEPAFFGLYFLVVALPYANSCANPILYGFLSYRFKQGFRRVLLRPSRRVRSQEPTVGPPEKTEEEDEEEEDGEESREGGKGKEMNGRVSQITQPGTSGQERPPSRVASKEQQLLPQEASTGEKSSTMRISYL
Sequence of SSTR 1 (P30872 whole entry): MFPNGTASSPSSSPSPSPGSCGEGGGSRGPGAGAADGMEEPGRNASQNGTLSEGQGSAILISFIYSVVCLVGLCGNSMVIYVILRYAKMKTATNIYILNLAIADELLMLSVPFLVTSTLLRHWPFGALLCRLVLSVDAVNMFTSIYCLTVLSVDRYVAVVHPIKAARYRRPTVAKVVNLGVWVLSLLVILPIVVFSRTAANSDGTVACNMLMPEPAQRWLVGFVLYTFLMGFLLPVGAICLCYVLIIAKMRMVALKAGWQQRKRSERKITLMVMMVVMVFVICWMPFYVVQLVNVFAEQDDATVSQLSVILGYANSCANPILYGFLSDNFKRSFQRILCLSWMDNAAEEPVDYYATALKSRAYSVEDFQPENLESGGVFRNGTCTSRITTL
Sequence of SSTR 4 (P31391 whole entry): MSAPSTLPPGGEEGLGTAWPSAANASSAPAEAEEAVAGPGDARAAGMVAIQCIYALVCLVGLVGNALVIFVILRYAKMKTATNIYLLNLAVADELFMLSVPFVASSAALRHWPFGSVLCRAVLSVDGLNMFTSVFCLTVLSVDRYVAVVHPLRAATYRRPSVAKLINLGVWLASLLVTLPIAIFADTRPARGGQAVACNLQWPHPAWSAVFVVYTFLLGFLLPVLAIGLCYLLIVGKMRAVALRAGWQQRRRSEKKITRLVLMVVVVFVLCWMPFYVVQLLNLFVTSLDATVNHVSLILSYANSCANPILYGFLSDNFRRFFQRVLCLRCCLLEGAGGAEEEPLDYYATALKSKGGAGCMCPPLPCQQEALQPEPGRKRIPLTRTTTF

Compound: CC(C)[C@@H]1NC(=O)[C@H](CCCCN)NC(=O)[C@@H](Cc2c[nH]c3ccccc23)NC(=O)[C@H](Cc2ccc(O)cc2)NC(=O)[C@@H](NC(=O)[C@H](N)Cc2ccc3ccccc3c2)CSSC[C@@H](C(=O)N[C@H](C(N)=O)[C@@H](C)O)NC1=O [lanreotide]
- affinity (SSTR 3): low affinity
- affinity (SSTR 1): low affinity
- affinity (SSTR 4): low affinity
- affinity [1]: high affinity
